Literature values, collected in patent US9248119B2, “Modified release dosage forms of xanthine oxidoreductase inhibitor or xanthine oxidase inhibitors” (Takeda Pharmaceuticals U.S.A., Inc., priority 2010, dated 2016).

Columns and labels:
[1] = tested on: renal injury and hypertension associated with hyperuricemia; details: Mazzali M, et al.; cited from earlier work
[2] = tested on: xanthine oxidoreductase; details: cited from earlier work

Compound | protection against renal injury and hypertension associated with hyperuricemia [1] | inhibition of xanthine oxidoreductase activity [2]
Oc1ncnc2[nH]ncc12 [Allopurinol] | prevent the renal injury and hypertension | –
CCc1oc2ccccc2c1C(=O)c1cc(I)c(O)c(I)c1 [Benziodarone] | lower | does not inhibit
